Patent US20100160386A1, “4-PHENOXY-NICOTINE ACID DERIVATIVES AND USE THEREOF AS PPAR-MODULATORS” (BAYER SCHERING PHARMA AKTIENGESELLSCHAFT, priority 2006, published 2010)

Target: T1, human PPARα-receptor (Homo sapiens, UniProt Q07869)
T1 construct: expressed in transfected cells
T1 sequence (Q07869 167-468): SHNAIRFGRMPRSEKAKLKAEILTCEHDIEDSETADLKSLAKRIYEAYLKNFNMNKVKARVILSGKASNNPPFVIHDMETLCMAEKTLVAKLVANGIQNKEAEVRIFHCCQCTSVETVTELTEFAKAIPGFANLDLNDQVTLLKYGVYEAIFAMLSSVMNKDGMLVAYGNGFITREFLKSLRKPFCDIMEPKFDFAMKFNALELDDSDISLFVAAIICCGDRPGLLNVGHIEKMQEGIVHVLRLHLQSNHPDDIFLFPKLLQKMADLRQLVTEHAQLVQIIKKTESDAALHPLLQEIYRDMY
Assay: Cellular transactivation assay (GAL4-PPARα chimera, luciferase reporter in CHO cells)
Assay type: cell-based
Conditions: CHO cells stably expressing GAL4-PPARα chimera and luciferase reporter; stimulation time 6 h
From the text: A cellular assay is used to identify activators of the peroxisome proliferator-activated receptor alpha (PPAR-alpha).
Since mammalian cells contain different endogenous nuclear receptors which can complicate unambiguous interpretation of the results, an established chimera system is used, in which the ligand binding domain of the human PPARα-receptor is fused to the DNA binding domain of the yeast transcription factors GAL4. The GAL4-PPARα chimera thus formed is co-transfected and expressed stably in CHO cells with a reporter construct.
The GAL4-PPARα expression construct contains the ligand binding domain of PPARα (amino acids 167-468), which is PCR-amplified and cloned into the vector pcDNA3.1. This vector already contains the GAL4 DNA binding domain (amino acids 1-147) of the vector pFC2-dbd (Stratagene). The reporter construct, which contains five copies of the GAL4 binding site upstream of a thymidine kinase promoter, leads to the expression of firefly luciferase (Photinus pyralis) after activation and binding of GAL4-PPARα.
The day before the test, CHO (Chinese hamster ovary) cells which stably express the above-described GAL4-PPARα chimera and luciferase reporter gene construct are plated out in 96-hole microtiter plates with 1×10^3 cells in medium (Optimem, GIBCO), 2% activated carbon-purified fetal calf serum (Hyclone), 1.35 mM sodium pyruvate (GIBCO), 0.2% sodium bicarbonate (GIBCO), and kept in a cell incubator (air humidity 96%, 5% v/v CO2, 37° C.). On the day of the test, the substances to be tested are taken up in abovementioned medium, but without addition of calf serum, and added to the cells. After a stimulation time of 6 h, the luciferase activity is measured with the aid of a video camera. The relative light units measured give a sigmoid stimulation curve as a function of the substance concentration. The EC50 values are calculated with the aid of the computer program GraphPad PRISM (Version 3.02).

| Compound | EC50 [nM] |
| --- | --- |
| Cc1ccc(-c2cc(Oc3ccccc3Cl)c(C(=O)O)cn2)cc1F [Example 1, 4-(2-Chlorophenoxy)-6-(3-fluoro-4-methylphenyl)nicotinic acid] | 59 |
| COc1ccc(Cl)c(Oc2cc(-c3cc(F)cc(F)c3)ncc2C(=O)O)c1 [Example 7, 4-(2-Chloro-5-methoxyphenoxy)-6-(3,5-difluorophenyl)nicotinic acid] | 200 |
| COc1ccc(Oc2cc(-c3ccc(C)c(F)c3)ncc2C(=O)O)c(Cl)c1 [Example 9, 4-(2-Chloro-4-methoxyphenoxy)-6-(3-fluoro-4-methylphenyl)nicotinic acid] | 235 |
